Results taken from patent publication US11878063B2, “Engineered ligands and uses thereof” (Children's Medical Center Corporation, priority 2019, dated 2024).
“Also recorded” adds a separate entry of the source. Square brackets hold non-standard residues; d marks the D form. Peptide text beside a SMILES is read from it. Aib = CC(C)(N)C(=O)O

What was measured:
human PTHR1 = target: T1, human PTHR1 (Homo sapiens, UniProt Q03431); assay: cAMP induction (cAMP-responsive luciferase) in HEK293 cells stably expressing human PTHR1; assay type: cell-based
T1 construct: expressed in transfected cells
T1 sequence (Q03431 27-593): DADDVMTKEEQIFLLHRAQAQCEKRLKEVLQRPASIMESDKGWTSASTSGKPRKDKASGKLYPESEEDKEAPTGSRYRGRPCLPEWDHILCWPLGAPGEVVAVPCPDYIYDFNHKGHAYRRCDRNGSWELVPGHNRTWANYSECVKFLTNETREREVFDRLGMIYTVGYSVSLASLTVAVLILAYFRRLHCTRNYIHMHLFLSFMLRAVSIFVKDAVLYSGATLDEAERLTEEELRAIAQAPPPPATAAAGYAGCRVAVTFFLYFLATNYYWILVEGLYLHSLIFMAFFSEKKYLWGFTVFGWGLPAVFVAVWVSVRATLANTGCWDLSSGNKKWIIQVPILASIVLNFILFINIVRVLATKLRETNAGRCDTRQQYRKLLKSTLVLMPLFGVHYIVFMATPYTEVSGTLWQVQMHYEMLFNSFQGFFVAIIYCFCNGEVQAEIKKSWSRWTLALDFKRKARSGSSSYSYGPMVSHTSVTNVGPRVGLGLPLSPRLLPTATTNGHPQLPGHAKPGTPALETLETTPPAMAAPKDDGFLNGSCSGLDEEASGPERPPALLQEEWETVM
Procedure: (§1) Measurement of cAMP response. These assays were performed as previously described^27. […] Confluent monolayers of cells were pre-incubated with CO2 independent medium containing D-luciferin (0.5 mM) at 37° C. until a stable baseline level of luminescence was established (20 min). Varying concentrations of ligands were then added, and the time course of luminescence response was recorded using BioTek plate reader.
(§2) Data calculations. Data were processed using Microsoft Excel and GraphPad Prism 6. Data from cAMP dose-response assays were analyzed using a sigmoidal dose-response model with variable slope. Data sets were statistically compared by using Student's t test (two-tailed) assuming unequal variances for the two sets.

PTHR16E = target: T2, PTHR16E (Homo sapiens, UniProt Q03431, A83I/D81R/G76A/K80A/K82Q/P78E/R79L/S71Q/S73D/S75E/T74Q); assay: cAMP induction in HEK293 cells stably expressing PTHR16E (6E/Ubc6e epitope tag in exon 2 segment); assay type: cell-based
T2 construct: expressed in transfected cells
T2 sequence (Q03431 27-593 S71Q/S73D/T74Q/S75E/G76A/P78E/R79L/K80A/D81R/K82Q/A83I): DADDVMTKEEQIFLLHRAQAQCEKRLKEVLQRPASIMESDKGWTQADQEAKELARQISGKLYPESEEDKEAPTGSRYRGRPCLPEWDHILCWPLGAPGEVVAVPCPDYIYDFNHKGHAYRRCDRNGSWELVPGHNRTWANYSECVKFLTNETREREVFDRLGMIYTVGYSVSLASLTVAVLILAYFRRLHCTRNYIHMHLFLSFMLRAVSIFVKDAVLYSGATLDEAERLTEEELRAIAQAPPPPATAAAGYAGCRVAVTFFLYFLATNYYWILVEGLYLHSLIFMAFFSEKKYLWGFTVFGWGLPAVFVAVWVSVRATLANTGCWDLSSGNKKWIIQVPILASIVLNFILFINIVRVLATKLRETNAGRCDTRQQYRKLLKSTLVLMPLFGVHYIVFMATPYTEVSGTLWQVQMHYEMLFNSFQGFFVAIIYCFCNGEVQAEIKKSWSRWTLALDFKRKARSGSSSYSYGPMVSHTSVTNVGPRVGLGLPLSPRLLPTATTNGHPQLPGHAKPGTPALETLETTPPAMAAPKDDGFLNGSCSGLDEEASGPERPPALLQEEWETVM
Procedure: Measurement of cAMP response. These assays were performed as previously described^27. Briefly, HEK-293-derived cell lines that stably express the Glosensor cAMP reporter (Promega Corp.)^30 and PTHR1, a PTHR1 variant, or PTHR2 were seeded into white sided 96 well plates (50,000 cells/well) and grown to confluency. Confluent monolayers of cells were pre-incubated with CO2 independent medium containing D-luciferin (0.5 mM) at 37° C. until a stable baseline level of luminescence was established (20 min). Varying concentrations of ligands were then added, and the time course of luminescence response was recorded using BioTek plate reader.
as §2
The portion of PTHR1 encoded by exon 2 is not resolved in structural studies (FIG. 12—Panel d)^13, 14, 17, is not important for ligand binding^18, and in past work has been targeted as a site for receptor modification^18, 19. A construct was generated that encodes a PTHR1 variant in which a 14-residue fragment from exon 2 was replaced with a 14-mer epitope tag from the intracellular protein UBC6e (PTHR16E, FIG. 12—Panel d)^20. A receptor construct in which a pH-sensitive green fluorescent protein variant (GFP) was inserted into the portion of the receptor encoded by exon 2 (PTHR1GFP in FIGS. 17A to 17C)^19. Another version of PTHR1 in which yellow fluorescent protein (YFP) replaces the entire extracellular domain (PTHR1YFPΔECD, FIG. 12—Panel e)^21, was also used.

rat PTHR1 [1] = target: T3, rat PTHR1 (Rattus norvegicus, UniProt P25961); assay: cAMP induction in HEK293 cells stably expressing rat PTHR1; assay type: cell-based
T3 construct: expressed in transfected cells
T3 sequence (P25961 27-591): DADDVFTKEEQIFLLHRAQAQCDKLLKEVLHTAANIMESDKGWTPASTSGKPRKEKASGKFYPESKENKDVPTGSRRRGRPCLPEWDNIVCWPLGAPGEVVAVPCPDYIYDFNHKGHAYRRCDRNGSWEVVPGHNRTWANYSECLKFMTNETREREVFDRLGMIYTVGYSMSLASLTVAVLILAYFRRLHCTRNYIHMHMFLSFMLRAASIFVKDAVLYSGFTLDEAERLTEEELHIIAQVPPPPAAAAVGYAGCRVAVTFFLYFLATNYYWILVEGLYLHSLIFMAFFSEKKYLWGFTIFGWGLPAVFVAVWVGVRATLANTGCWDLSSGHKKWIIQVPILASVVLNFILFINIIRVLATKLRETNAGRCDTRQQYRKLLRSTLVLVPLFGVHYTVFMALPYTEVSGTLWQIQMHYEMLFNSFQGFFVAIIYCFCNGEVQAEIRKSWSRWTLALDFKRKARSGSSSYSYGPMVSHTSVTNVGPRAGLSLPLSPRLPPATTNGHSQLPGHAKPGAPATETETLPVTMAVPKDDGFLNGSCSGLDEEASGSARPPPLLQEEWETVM
Procedure: as §1, §2

PTHR2 [2] = target: T4, PTHR2 (Homo sapiens, UniProt P49190); assay: cAMP induction in HEK293 cells stably expressing human PTHR2; assay type: cell-based; details: at 100 uM
T4 construct: expressed in transfected cells
Procedure: as §1, §2

PTHR1YFPΔECD = assay: Flow cytometry staining by VHH-Alexafluor647 of HEK293 cells expressing PTHR1YFPΔECD; assay type: binding, human
Procedure: (§3) Flow cytometry. Suspensions of cells in PBS were stained for 1 hour on ice in the presence of indicated concentrations of VHH probes functionalized with Alexafluor647. Cells were pelleted by centrifugation and washed with PBS prior to analysis by flow cytometry (BD Accuri C6). Gating was performed on forward scatter/side scatter profiles to analyze intact cells. Data was analyzed using FlowJo version 7.6. The median fluorescent intensity (MFI) of stained cells was used to generate VHH binding dose response curves (FIG. 20).

PTHR1GFP = assay: Flow cytometry staining by VHH-Alexafluor647 of HEK293 cells expressing PTHR1GFP; assay type: binding, human; details: 100 nM VHH
Procedure: FIGS. 17A-17C: Use of PTHR1-GFP. (FIG. 17A) Hypothetical structure of PTHR1 with GFP engrafted into exon 2 bound to a GFP binding nanobody. (FIG. 17B) Flow cytometry analysis of cells stably expressing PTHR1-GFP. HEK293 cell lines in suspension were incubated on ice with 100 nM VHH sortagged with Alexafluor647, pelleted by centrifugation, washed and analyzed. […] This weak staining is likely related to the inability of VHHGFP to tightly bind the pH-sensitive GFP variant known as pHluorin2 engrafted into the receptor (ref. 19, main text). (FIG. 17C) HEK293 cells stably expressing PTHR1-GFP were treated with varied doses of the indicated peptides or conjugates and activation was assessed by measuring luminescence from a cAMP-activated luciferase variant. Values listed represent EC50 values (mean±SD). Each value comes from ≥3 independent experiments. Further details, including the number of replicates for each measurement and the normalized maximal responses induced, are reported in Table 5.
Flow cytometry. Suspensions of cells in PBS were stained for 1 hour on ice in the presence of indicated concentrations of VHH probes functionalized with Alexafluor647. Cells were pelleted by centrifugation and washed with PBS prior to analysis by flow cytometry (BD Accuri C6). Gating was performed on forward scatter/side scatter profiles to analyze intact cells. Data was analyzed using FlowJo version 7.6. […]

PTHR1 = assay: Flow cytometry staining by VHH-Alexafluor647 of HEK293 cells expressing PTHR1 constructs that retain the ECD; assay type: binding, human; details: 100 nM VHH
Procedure: as §3

PTHR2 [3] = target: T4, PTHR2; assay: Flow cytometry staining by VHH-Alexafluor647 of HEK293 cells expressing PTHR2; assay type: binding; details: 100 nM VHH; listed as VHH22A3
Procedure: as §3

rat PTHR1 [4] = target: T3, rat PTHR1; assay: Flow cytometry staining by VHH-Alexafluor647 of HEK293 cells expressing rat PTHR1; assay type: binding; details: 100 nM VHH
Procedure: as §3

T4 sequence (P49190 25-550): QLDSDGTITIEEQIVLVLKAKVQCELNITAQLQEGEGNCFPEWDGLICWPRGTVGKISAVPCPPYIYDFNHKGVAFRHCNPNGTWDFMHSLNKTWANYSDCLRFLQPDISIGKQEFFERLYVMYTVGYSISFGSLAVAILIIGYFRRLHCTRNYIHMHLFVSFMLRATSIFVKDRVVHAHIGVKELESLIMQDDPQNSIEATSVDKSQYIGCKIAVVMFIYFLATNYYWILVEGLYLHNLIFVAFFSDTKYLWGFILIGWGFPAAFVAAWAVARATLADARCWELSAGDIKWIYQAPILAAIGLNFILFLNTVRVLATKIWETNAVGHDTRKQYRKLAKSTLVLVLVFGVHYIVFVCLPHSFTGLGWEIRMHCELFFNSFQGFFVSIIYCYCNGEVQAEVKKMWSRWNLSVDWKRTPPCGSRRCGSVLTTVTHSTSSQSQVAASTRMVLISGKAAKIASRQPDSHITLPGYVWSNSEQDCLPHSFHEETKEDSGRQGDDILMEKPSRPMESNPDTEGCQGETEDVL

## CC[C@H](C)[C@H](NC(=O)[C@H](CCC(=O)O)NC(=O)C(C)(C)NC(=O)[C@@H](NC(=O)[C@H](C)N)C(C)C)C(=O)N[C@@H](CCC(N)=O)C(=O)N[C@@H](CC(C)C)C(=O)N[C@@H](CCSC)C(=O)N[C@@H](Cc1c[nH]cn1)C(=O)N[C@@H](CCC(N)=O)C(=O)N[C@@H](CCCNC(=N)N)C(=O)N[C@@H](CS)C(N)=O [PTH(1-11)] (H-AV[Aib]EIQLMHQRC-NH2)
Human PTHR1
  EC50: 516 ± 238 nM
PTHR16E
  EC50: 94 ± 74 nM
Rat PTHR1 [1]
  EC50: 120 ± 90.3 nM
PTHR2 [2]
  response at 100 uM, hPTHR2: 20%

## VHHGFP: nanobody that binds GFP and YFP, SEQ ID NO: 73
PTHR1YFPΔECD; 100 nM VHH
  staining of PTHR1YFPΔECD cells (in words): stained
PTHR1YFPΔECD; flow cytometry, on ice, read-out: half-maximal staining concentration, PTHR1YFP-del-NT cells
  EC50: < 10 nM
PTHR1GFP
  staining of PTHR1GFP cells (in words): only weakly stained

B1: VHHPTHR: nanobody that recognizes the PTHR1 extracellular domain, SEQ ID NO: 74, from US 2010/0062004 (protein)
VHH: EVQLVESGGGLVQAGGSLRLSCAASGNIFANNIMGWYRQPPGKEREFVAHVSHDGDSMYAVSVKGRFAISRKDATNLYLQMNSLKPEDTAIYFCRLLNIPTQGRMEGFWGQGTQVTVSS
PTHR1
  binding to PTHR1 constructs retaining the ECD (in words): bound all constructs that retained the PTHR1 ECD; also recorded: binds to PTHR1
PTHR2 [3]
  binding to PTHR2 (in words): lack of binding
Rat PTHR1 [4]
  binding to rat PTHR1 (in words): bound
